Experimental data: PubChem BioAssay (NCI)
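Five concentrations, 48 hours, 96-well plates. GI50: concentration for 50% inhibition of growth. TGI marks complete inhibition of growth.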

Assays:
Experiment in all cases: NCI tumour cell line growth inhibition, 48 h
786-0 renal = system: 786-0 renal
A498 renal = system: A498 renal
A549 NSCLC = system: A549 NSCLC
ACHN renal = system: ACHN renal
BT-549 breast = system: BT-549 breast
CAKI-1 renal = system: CAKI-1 renal
CCRF-CEM leukemia = system: CCRF-CEM leukemia
COLO 205 colon = system: COLO 205 colon
DU-145 prostate = system: DU-145 prostate
HCC-2998 colon = system: HCC-2998 colon
HCT-116 colon = system: HCT-116 colon
HCT-15 colon = system: HCT-15 colon
HL-60(TB) leukemia = system: HL-60(TB) leukemia
HOP-62 NSCLC = system: HOP-62 NSCLC
HS 578T breast = system: HS 578T breast
HT29 colon = system: HT29 colon
IGROV1 ovarian = system: IGROV1 ovarian
K-562 leukemia = system: K-562 leukemia
KM12 colon = system: KM12 colon
LOX IMVI melanoma = system: LOX IMVI melanoma
M14 melanoma = system: M14 melanoma
MALME-3M melanoma = system: MALME-3M melanoma
MCF7 breast = system: MCF7 breast
MDA-MB-231 breast = system: MDA-MB-231 breast
MDA-MB-435 = system: MDA-MB-435
MOLT-4 leukemia = system: MOLT-4 leukemia
NCI-H226 lung = system: NCI-H226 lung
NCI-H23 lung = system: NCI-H23 lung
NCI-H460 lung = system: NCI-H460 lung
NCI-H522 lung = system: NCI-H522 lung
NCI/ADR-RES ovarian = system: NCI/ADR-RES ovarian
OVCAR-3 ovarian = system: OVCAR-3 ovarian
OVCAR-4 ovarian = system: OVCAR-4 ovarian
OVCAR-5 ovarian = system: OVCAR-5 ovarian
OVCAR-8 ovarian = system: OVCAR-8 ovarian
PC-3 prostate = system: PC-3 prostate
RPMI-8226 leukemia = system: RPMI-8226 leukemia
RXF 393 renal = system: RXF 393 renal
SF-268 CNS = system: SF-268 CNS
SF-295 CNS = system: SF-295 CNS
SF-539 CNS = system: SF-539 CNS
SK-MEL-2 melanoma = system: SK-MEL-2 melanoma
SK-MEL-28 melanoma = system: SK-MEL-28 melanoma
SK-MEL-5 melanoma = system: SK-MEL-5 melanoma
SK-OV-3 ovarian = system: SK-OV-3 ovarian
SN12C renal = system: SN12C renal
SNB-19 CNS = system: SNB-19 CNS
SNB-75 CNS = system: SNB-75 CNS
SR leukemia = system: SR leukemia
SW-620 colon = system: SW-620 colon
T-47D breast = system: T-47D breast
TK-10 renal = system: TK-10 renal
U251 CNS = system: U251 CNS
UACC-257 melanoma = system: UACC-257 melanoma
UACC-62 melanoma = system: UACC-62 melanoma
UO-31 renal = system: UO-31 renal
EKVX NSCLC = system: EKVX NSCLC
HOP-92 NSCLC = system: HOP-92 NSCLC

Compound: Nc1ccccc1SC(CC(=O)c1ccccc1)c1cccc([N+](=O)[O-])c1 (stereo unspecified)
- GI50 (786-0 renal): 18.9 µM
- TGI (786-0 renal): 33.3 µM
- GI50 (A498 renal): 16.6 µM
- TGI (A498 renal): 30.9 µM
- GI50 (A549 NSCLC): 18.6 µM
- TGI (A549 NSCLC): 36.7 µM
- GI50 (ACHN renal): 14.5 µM
- TGI (ACHN renal): 27.9 µM
- GI50 (BT-549 breast): 17 µM
- TGI (BT-549 breast): 30.9 µM
- GI50 (CAKI-1 renal): 16.4 µM
- TGI (CAKI-1 renal): 30.4 µM
- GI50 (CCRF-CEM leukemia): 16 µM
- TGI (CCRF-CEM leukemia): 50.8 µM
- GI50 (COLO 205 colon): 19.1 µM
- TGI (COLO 205 colon): 34.7 µM
- GI50 (DU-145 prostate): 14.7 µM
- TGI (DU-145 prostate): 28 µM
- GI50 (HCC-2998 colon): 17.3 µM
- TGI (HCC-2998 colon): 31.3 µM
- GI50 (HCT-116 colon): 1.96 µM
- TGI (HCT-116 colon): 3.97 µM
- GI50 (HCT-15 colon): 11.5 µM
- TGI (HCT-15 colon): 28.4 µM
- GI50 (HL-60(TB) leukemia): 17.3 µM
- TGI (HL-60(TB) leukemia): 40.1 µM
- GI50 (HOP-62 NSCLC): 15.5 µM
- TGI (HOP-62 NSCLC): 28.9 µM
- GI50 (HS 578T breast): 21.5 µM
- TGI (HS 578T breast): 57.3 µM
- GI50 (HT29 colon): 5.79 µM
- TGI (HT29 colon): 23 µM
- GI50 (IGROV1 ovarian): 13.1 µM
- TGI (IGROV1 ovarian): 28.1 µM
- GI50 (K-562 leukemia): 3.72 µM
- TGI (K-562 leukemia): 13.6 µM
- GI50 (KM12 colon): 6.24 µM
- TGI (KM12 colon): 19.3 µM
- GI50 (LOX IMVI melanoma): 1.99 µM
- TGI (LOX IMVI melanoma): 4.07 µM
- GI50 (M14 melanoma): 17.3 µM
- TGI (M14 melanoma): 32.5 µM
- GI50 (MALME-3M melanoma): 16.9 µM
- TGI (MALME-3M melanoma): 31.3 µM
- GI50 (MCF7 breast): 2.6 µM
- TGI (MCF7 breast): 18 µM
- GI50 (MDA-MB-231 breast): 14.4 µM
- TGI (MDA-MB-231 breast): 28.3 µM
- GI50 (MDA-MB-435): 16.3 µM
- TGI (MDA-MB-435): 30.4 µM
- GI50 (MOLT-4 leukemia): 17.6 µM
- TGI (MOLT-4 leukemia): 50.5 µM
- GI50 (NCI-H226 lung): 17.1 µM
- TGI (NCI-H226 lung): 35.2 µM
- GI50 (NCI-H23 lung): 17.6 µM
- TGI (NCI-H23 lung): 32.6 µM
- GI50 (NCI-H460 lung): 19.4 µM
- TGI (NCI-H460 lung): 38.8 µM
- GI50 (NCI-H522 lung): 15 µM
- TGI (NCI-H522 lung): 29.5 µM
- GI50 (NCI/ADR-RES ovarian): 20.4 µM
- TGI (NCI/ADR-RES ovarian): 42.8 µM
- GI50 (OVCAR-3 ovarian): 12.8 µM
- TGI (OVCAR-3 ovarian): 25.8 µM
- GI50 (OVCAR-4 ovarian): 14.6 µM
- TGI (OVCAR-4 ovarian): 27.8 µM
- GI50 (OVCAR-5 ovarian): 17.4 µM
- TGI (OVCAR-5 ovarian): 32.2 µM
- GI50 (OVCAR-8 ovarian): 14.9 µM
- TGI (OVCAR-8 ovarian): 28.5 µM
- GI50 (PC-3 prostate): 12.5 µM
- TGI (PC-3 prostate): 25.5 µM
- GI50 (RPMI-8226 leukemia): 3.89 µM
- TGI (RPMI-8226 leukemia): 19 µM
- GI50 (RXF 393 renal): 15 µM
- TGI (RXF 393 renal): 28.6 µM
- GI50 (SF-268 CNS): 16.3 µM
- TGI (SF-268 CNS): 31.3 µM
- GI50 (SF-295 CNS): 16.2 µM
- TGI (SF-295 CNS): 30.3 µM
- GI50 (SF-539 CNS): 16.8 µM
- TGI (SF-539 CNS): 30.7 µM
- GI50 (SK-MEL-2 melanoma): 20.6 µM
- TGI (SK-MEL-2 melanoma): 35.8 µM
- GI50 (SK-MEL-28 melanoma): 16.6 µM
- TGI (SK-MEL-28 melanoma): 30.3 µM
- GI50 (SK-MEL-5 melanoma): 15.4 µM
- TGI (SK-MEL-5 melanoma): 29 µM
- GI50 (SK-OV-3 ovarian): 18.1 µM
- TGI (SK-OV-3 ovarian): 32 µM
- GI50 (SN12C renal): 13.9 µM
- TGI (SN12C renal): 26.9 µM
- GI50 (SNB-19 CNS): 14.3 µM
- TGI (SNB-19 CNS): 27.4 µM
- GI50 (SNB-75 CNS): 13.6 µM
- TGI (SNB-75 CNS): 26.7 µM
- GI50 (SR leukemia): 2.55 µM
- TGI (SR leukemia): 6.46 µM
- GI50 (SW-620 colon): 3.03 µM
- TGI (SW-620 colon): 12.2 µM
- GI50 (T-47D breast): 12.1 µM
- TGI (T-47D breast): 36.2 µM
- GI50 (TK-10 renal): 20.7 µM
- TGI (TK-10 renal): 35.1 µM
- GI50 (U251 CNS): 7.51 µM
- TGI (U251 CNS): 20.7 µM
- GI50 (UACC-257 melanoma): 17.1 µM
- TGI (UACC-257 melanoma): 31.1 µM
- GI50 (UACC-62 melanoma): 13.8 µM
- TGI (UACC-62 melanoma): 26.9 µM
- GI50 (UO-31 renal): 3.11 µM
- TGI (UO-31 renal): 20.5 µM

Compound: CCC(=O)NC(Nc1cc(C)on1)(C(F)(F)F)C(F)(F)F
- TGI (786-0 renal): > 100 µM
- TGI (A498 renal): > 100 µM
- TGI (A549 NSCLC): > 100 µM
- TGI (ACHN renal): > 100 µM
- TGI (BT-549 breast): > 100 µM
- TGI (CAKI-1 renal): > 100 µM
- TGI (CCRF-CEM leukemia): > 100 µM
- TGI (DU-145 prostate): > 100 µM
- TGI (EKVX NSCLC): > 100 µM
- TGI (HCC-2998 colon): > 100 µM
- TGI (HCT-116 colon): > 100 µM
- TGI (HCT-15 colon): > 100 µM
- TGI (HL-60(TB) leukemia): > 100 µM
- TGI (HOP-62 NSCLC): > 100 µM
- TGI (HOP-92 NSCLC): > 100 µM
- TGI (HS 578T breast): > 100 µM
- TGI (HT29 colon): > 100 µM
- TGI (IGROV1 ovarian): > 100 µM
- TGI (K-562 leukemia): > 100 µM
- TGI (KM12 colon): > 100 µM
- TGI (LOX IMVI melanoma): > 100 µM
- TGI (M14 melanoma): > 100 µM
- TGI (MALME-3M melanoma): > 100 µM
- TGI (MCF7 breast): > 100 µM
- TGI (MDA-MB-231 breast): > 100 µM
- TGI (MDA-MB-435): > 100 µM
- TGI (MOLT-4 leukemia): > 100 µM
- TGI (NCI-H226 lung): > 100 µM
- TGI (NCI-H23 lung): > 100 µM
- TGI (NCI-H460 lung): > 100 µM
- TGI (NCI-H522 lung): > 100 µM
- TGI (NCI/ADR-RES ovarian): > 100 µM
- TGI (OVCAR-3 ovarian): > 100 µM
- TGI (OVCAR-5 ovarian): > 100 µM
- TGI (OVCAR-8 ovarian): > 100 µM
- TGI (RPMI-8226 leukemia): > 100 µM
- TGI (RXF 393 renal): > 100 µM
- TGI (SF-268 CNS): > 100 µM
- TGI (SF-539 CNS): > 100 µM
- TGI (SK-MEL-2 melanoma): > 100 µM
- TGI (SK-MEL-28 melanoma): > 100 µM
- TGI (SK-MEL-5 melanoma): > 100 µM
- TGI (SK-OV-3 ovarian): > 100 µM
- TGI (SN12C renal): > 100 µM
- TGI (SNB-19 CNS): > 100 µM
- TGI (SNB-75 CNS): > 100 µM
- TGI (SR leukemia): > 100 µM
- TGI (SW-620 colon): > 100 µM
- TGI (T-47D breast): > 100 µM
- TGI (TK-10 renal): > 100 µM
- TGI (U251 CNS): > 100 µM
- TGI (UACC-257 melanoma): > 100 µM
- TGI (UACC-62 melanoma): > 100 µM
- TGI (UO-31 renal): > 100 µM
